Like-named read-outs stand apart in the source and are kept apart here.
How the values were obtained:
[1] = target: Biotin-labeled RNA (target RNA); assay: BLI affinity measurement (ForteBio Octet RED384); type: binding; settings: Table G
[2] = test system: RAN translation of (G4C2)66-No ATG-GFP in HEK293T cells; assay: Cell-based assay of RAN translation inhibition (GFP/mCherry reporter); settings: Homo sapiens, HEK-293T; for IC50: Table G, read-out: RANT IC50; for IC25: 24 h, read-out: RANT IC25
[3] = target: biotinylated r(G4C2)8 RNA and hnRNP H1-His6; assay: TR-FRET hnRNP H binding assay; settings: Table D
Method in brief: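 Biotinylated r(G4C2)8 RNA (80 nM), heat-folded at 95 °C then slowly cooled, was preincubated 15 min with compound before hnRNP H1-His6 (75 nM) was added. After 15 min, streptavidin-XL665 (40 nM) and anti-His6-Tb (0.44 ng/μL) were added and TR-FRET was read after 1 h. IC50 was obtained by curve fitting.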

[4] = Table D, HEK293T, 24 h treatment

| Structure (SMILES) | Kd [1] [µM] | IC50 ([2]; HEK293T) [µM] | Ki [3] [µM] | IC25 [2, 4] [µM] | IC25 [2] [µM] |
| --- | --- | --- | --- | --- | --- |
| c1cc2cc3[nH]c4ccc(OCC5=NCCN5)cc4c3cc2cn1 [Compound 262, 9-((4,5-dihydro-1H-imidazol-2-yl)methoxy)-6H-pyrido[4,3-b]carbazole] | 5.2 | 6.6 |  |  |  |
| Cc1c2ccncc2cc2c1[nH]c1ccc(OCCN)cc12 [Compound 263, 2-[(5-methyl-6H-pyrido[4,3-b]carbazol-9-yl)oxy]ethanamine] | 0.61 | > 100 |  |  |  |
| Cc1c2ccncc2cc2c3cc(OCC(N)=O)cc(F)c3n(C)c12 [Compound 264, 2-(7-fluoro-5,6-dimethyl-pyrido[4,3-b]carbazol-9-yl)oxyacetamide] | 0.18 | > 100 |  |  |  |
| Cc1c2ccncc2cc2c3cc(OC[C@H]4CCCN4)cc(F)c3n(C)c12 [Compound 265, (R)-7-fluoro-5,6-dimethyl-9-(pyrrolidin-2-ylmethoxy)-6H-pyrido[4,3-b]carbazole] | 0.72 | > 100 |  |  |  |
| Cc1c2ccncc2cc2c3cc(OCCCN4CCCCC4)ccc3n(C)c12 [Compound 266, 5,6-dimethyl-9-(3-(piperidin-1-yl)propoxy)-6H-pyrido[4,3-b]carbazole] | 0.69 | 7.8 |  |  |  |
| Cc1c2ccncc2cc2c3cc(OCC[C@@H](C)N)ccc3n(C)c12 [Compound 267, (R)-4-((5,6-dimethyl-6H-pyrido[4,3-b]carbazol-9-yl)oxy)butan-2-amine] | 8 | > 21 |  |  |  |
| Cc1c2ccncc2cc2c3cc(OCC[C@H](C)N)ccc3n(C)c12 [Compound 268, (S)-4-((5,6-dimethyl-6H-pyrido[4,3-b]carbazol-9-yl)oxy)butan-2-amine] | 8.7 | 2.9 |  |  |  |
| Cc1c2ccncc2cc2c3cc(OC[C@H]4CCCN4C)ccc3n(C)c12 [Example 36, (R)-5,6-dimethyl-9-((1-methylpyrrolidin-2-yl)methoxy)-6H-pyrido[4,3-b]carbazole] |  |  | 3.9 | > 5 |  |
| Cc1c2ccncc2cc2c3cc(OC[C@@H]4CCCN4C)ccc3n(C)c12 [Example 37, (S)-5,6-dimethyl-9-((1-methylpyrrolidin-2-yl)methoxy)-6H-pyrido[4,3-b]carbazole] |  |  | 0.84 | 2.3 |  |
| Cc1c2ccncc2cc2c3cc(OC[C@H]4CCCN4)ccc3n(C)c12 [Example 38, (R)-5,6-dimethyl-9-(pyrrolidin-2-ylmethoxy)-6H-pyrido[4,3-b]carbazole] |  |  | 0.76 | 0.74 |  |
| Cc1c2ccncc2cc2c3cc(OC[C@@H]4CCCN4)ccc3n(C)c12 [Example 39, (S)-5,6-dimethyl-9-(pyrrolidin-2-ylmethoxy)-6H-pyrido[4,3-b]carbazole] |  |  | 0.8 | 1.3 |  |
| Cc1c2ccncc2cc2c3cc(OCC4=NCCN4C)ccc3n(C)c12 [Example 41, 5,6-dimethyl-9-((1-methyl-4,5-dihydro-1H-imidazol-2-yl)methoxy)-6H-pyrido[4,3-b]carbazole] |  |  | 0.6 | 0.67 |  |
| Cc1c2ccncc2cc2c3cc(OCC(=O)NCCN4CCOCC4)ccc3n(C)c12 [Example 42, 2-((5,6-dimethyl-6H-pyrido[4,3-b]carbazol-9-yl)oxy)-N-(2-morpholinoethyl)acetamide] |  |  | 9.2 | > 5 |  |
| COc1ccc2c(c1)c1cc3ccncc3c(C)c1n2C [Example 50, 7-methoxy-10,11-dimethyl-10H-pyrido[3,4-b]carbazole] |  |  | 33 | 0.27 |  |
| Cc1c2ccncc2cc2c3ccc(OCCN(C)C)cc3n(C)c12 [Example 51, 2-((5,6-dimethyl-6H-pyrido[4,3-b]carbazol-8-yl)oxy)-N,N-dimethylethanamine] |  |  | 6 | > 5 |  |
| Cc1c2ccncc2cc2c3ccc(OCC4=NCCN4)cc3n(C)c12 [Example 52, 8-((4,5-dihydro-1H-imidazol-2-yl)methoxy)-5,6-dimethyl-6H-pyrido[4,3-b]carbazole] |  |  | 5.6 | 3.1 |  |
| Cc1c2ccncc2cc2c3c(OCCN4CCOCC4)cccc3n(C)c12 [Example 54, 4-(2-((5,6-dimethyl-6H-pyrido[4,3-b]carbazol-10-yl)oxy)ethyl)morpholine] |  |  | 13 | 1.3 |  |
| Cc1c2ccncc2cc2c3c(OCCN(C)C)cccc3n(C)c12 [Example 55, 2-((5,6-dimethyl-6H-pyrido[4,3-b]carbazol-10-yl)oxy)-N,N-dimethylethanamine] |  |  | 1.5 |  | 0.92 |
| Cc1c2ccncc2cc2c3c(OCC4=NCCN4)cccc3n(C)c12 [Example 56, 10-((4,5-dihydro-1H-imidazol-2-yl)methoxy)-5,6-dimethyl-6H-pyrido[4,3-b]carbazole] |  |  | 1 | 0.67 |  |
| Cc1c2ccncc2cc2c3cc(OCC(=O)N(C)C)ccc3n(C)c12 [Example 57, 2-((5,6-dimethyl-6H-pyrido[4,3-b]carbazol-9-yl)oxy)-N,N-dimethylacetamide] |  |  | 5.2 | 4 |  |

| Structure (SMILES) | Kd [1] [µM] | IC50 ([2]; HEK293T) [µM] | Ki [3] [µM] | IC25 [2, 4] [µM] | IC25 [2] [µM] |
| --- | --- | --- | --- | --- | --- |
| Cc1c2ccncc2cc2c3cc(OCC(=O)N4CCN(C)CC4)ccc3n(C)c12 [Example 60, 2-((5,6-dimethyl-6H-pyrido[4,3-b]carbazol-9-yl)oxy)-1-(4-methylpiperazin-1-yl)ethanone] |  |  | 3.8 | > 5 |  |
| Cc1c2ccncc2cc2c3cc(OC[C@@H](C)N)ccc3n(C)c12 [Example 61, (R)-1-((5,6-dimethyl-6H-pyrido[4,3-b]carbazol-9-yl)oxy)propan-2-amine] |  |  | 0.9 | 1 |  |
| CCn1c2ccc(OCCN3CCOCC3)cc2c2cc3cnccc3c(C)c21 [Example 62, 4-[2-(6-ethyl-5-methyl-pyrido[4,3-b]carbazol-9-yl)oxyethyl]morpholine] |  |  | > 200 | > 5 |  |
| CCn1c2ccc(OCC3=NCCN3)cc2c2cc3cnccc3c(C)c21 [Example 63, 9-((4,5-dihydro-1H-imidazol-2-yl)methoxy)-6-ethyl-5-methyl-6H-pyrido[4,3-b]carbazole] |  |  | 1.8 | 4.8 |  |
| Cc1c2ccncc2cc2c3cccc(OCCN4CCOCC4)c3n(C)c12 [Example 64, 4-(2-((5,6-dimethyl-6H-pyrido[4,3-b]carbazol-7-yl)oxy)ethyl) morpholine] |  |  | > 200 | > 5 |  |
| Cc1c2ccncc2cc2c3cc(C(=O)NCCN(C)C)ccc3n(C)c12 [Example 68, N-(2-(dimethylamino)ethyl)-5,6-dimethyl-6H-pyrido[4,3-b]carbazole-9-carboxamide] |  |  | 4 | 0.72 |  |
| Cc1c2ccncc2cc2c3cc(C(N)=O)ccc3n(C)c12 [Example 69, 5,6-dimethyl-6H-pyrido[4,3-b]carbazole-9-carboxamide] |  |  | 12 | 1.6 |  |
| CNC(=O)c1ccc2c(c1)c1cc3cnccc3c(C)c1n2C [Example 70, N,5,6-trimethyl-6H-pyrido[4,3-b]carbazole-9-carboxamide] |  |  | 36 | 3.6 |  |
| Cc1c2ccncc2cc2c3cc(C(=O)N(C)C)ccc3n(C)c12 [Example 71, N,N,5,6-tetramethyl-6H-pyrido[4,3-b]carbazole-9-carboxamide] |  |  | 107 | > 5 |  |
| CNCCNC(=O)c1ccc2c(c1)c1cc3cnccc3c(C)c1n2C [Example 73, 5,6-dimethyl-N-(2-(methylamino)ethyl)-6H-pyrido[4,3-b]carbazole-9-carboxamide] |  |  | 13 | 0.84 |  |
| Cc1c2ccncc2cc2c3cc(C(=O)NCCC4CCN(C)CC4)ccc3n(C)c12 [Example 75, 5,6-dimethyl-N-(2-(1-methylpiperidin-4-yl)ethyl)-6H-pyrido[4,3-b]carbazole-9-carboxamide] |  |  | 29 | 1.4 |  |
| Cc1c2ccncc2cc2c3cc(C(=O)N4CCN(C)CC4)ccc3n(C)c12 [Example 76, (5,6-dimethyl-6H-pyrido[4,3-b]carbazol-9-yl)(4-methylpiperazin-1-yl)methanone] |  |  | 4.2 | 2.2 |  |
| Cc1c2ccncc2cc2c3cc(C(=O)NCCN4CCCCC4)ccc3n(C)c12 [Example 77, 5,6-dimethyl-N-(2-(piperidin-1-yl)ethyl)-6H-pyrido[4,3-b]carbazole-9-carboxamide] |  |  | 1.2 | 1.7 |  |
| Cc1c2ccncc2cc2c3cc(C(=O)NCCO)ccc3n(C)c12 [Example 78, N-(2-hydroxyethyl)-5,6-dimethyl-6H-pyrido[4,3-b]carbazole-9-carboxamide] |  |  | 3.6 | 1.6 |  |
| CCc1nccc2c(C)c3c(cc12)c1cc(OC)ccc1n3C [Example 80a, 1-ethyl-9-methoxy-5,6-dimethyl-6H-pyrido[4,3-b]carbazole] |  |  | 30 | > 5 |  |
| COc1ccc2c(c1)c1cc3c(C4CCCO4)nccc3c(C)c1n2C (stereo not drawn) [Example 80b, 9-methoxy-5,6-dimethyl-1-(tetrahydrofuran-2-yl)-6H-pyrido[4,3-b]carbazole] |  |  | 9.2 | 3.1 |  |
| COc1ccc2c3cc4c(C(=O)N[C@H](C)CN(C)C)nccc4c(C)c3n(C)c2c1 [Example 82, (R)—N-(1-(dimethylamino)propan-2-yl)-8-methoxy-5,6-dimethyl-6H-pyrido[4,3-b]carbazole-1-carboxamide] |  |  | 20 | > 5 |  |
| Cc1c2cnccc2cc2c3cc(OCC4=NCCN4)ccc3n(C)c12 [Example 83, 7-(4,5-dihydro-1H-imidazol-2-ylmethoxy)-10,11-dimethyl-pyrido[3,4-b]carbazole] |  |  | 2.3 | 1.1 |  |
| Cc1c2ccncc2cc2c3cc(OCC4=NCCN4)ccc3n(C(C)C)c12 [Example 84, 9-(4,5-dihydro-1H-imidazol-2-ylmethoxy)-6-isopropyl-5-methyl-pyrido[4,3-b]carbazole] |  |  | 13 | > 5 |  |

Source: US20240067639A1, “SMALL MOLECULES THAT TARGET THE RNA THAT CAUSES ALS” (EXPANSION THERAPEUTICS, INC., priority 2020, published 2024)
